Assay results as given in patent US8524746B2, “Dosage regimen for COMT inhibitors” (Bial-Portela & Ca., S.A., priority 2007, dated 2013).
Read-outs that look alike come from different tables or passages of the source.

Assays:
[1] = Brain levels of L-DOPA and its derivatives in rats treated with L-DOPA plus benserazide; assay type: in vivo, rat; settings: 3 mg/kg oral
liver COMT = settings: rat, 3 mg/kg oral; for inhibition of liver COMT activity nine hours after administration: 9 h
Experimental: Livers from 60 day old male Wistar rats weighing 240-260 g (Harlan-Interfauna Ibérica, Barcelona, Spain), kept two per cage under controlled environmental conditions (12 h light/dark cycle and room temperature 24° C.) were used in all experiments. After decapitation, the organs were immediately removed and homogenised in 5 mM phosphate buffer of pH 7.8. COMT activity was evaluated by the ability to methylate adrenaline to metanephrine. […] The preincubation and incubation were carried out at 37° C. under conditions of light protection with continuous shaking and without oxygenation.
In experiments designed to evaluate the oral bioavailability of test substances, compounds were given by gastric tube to overnight fasted rats. Thereafter, at defined intervals, animals were killed by decapitation and livers removed and used to determine COMT activity as described above. At the end of the incubation period (5 min) the tubes were transferred to ice and the reaction was stopped by the addition of 200 μl of 2 M perchloric acid. The samples were then centrifuged (200×g, 4 min, 4° C.), and 500 μl aliquots of the supernatant, filtered on 0.22 μm pore size Spin-X filter tubes (Costar) were used for the assay of metanephrine. The assay of metanephrine was carried out by means of high pressure liquid chromatography with electrochemical detection. The lower limits for detection of metanephrine ranged from 350 to 500 fmol (0.5 to 1.0 μmol/mg protein/h).

[2] = 3 mg/kg oral
[3] = L-DOPA 12 mg/kg plus benserazide 3 mg/kg, all pre-treatment times (1, 7 and 24 h)
[4] = L-DOPA plus benserazide, inhibitor given 24 h in advance

Compound	brain 3-O-methyl-L-DOPA [1, 3]	brain DOPAC [1, 3]	brain L-DOPA [1, 3]	brain dopamine [1, 3]	time to maximal inhibitory effect on liver COMT (liver COMT) [min]	inhibition of liver COMT activity nine hours after administration (liver COMT)	inhibition of liver COMT activity 24 hours after administration (liver COMT)	circulating (plasma) 3-O-methyl-L-DOPA [2, 3]	plasma L-DOPA [2, 3]	brain L-DOPA ([1]; L-DOPA plus benserazide, 2 and 7 h after administration)	brain 3-O-methyl-L-DOPA [1, 4]	brain DOPAC [1, 4]	brain L-DOPA [1, 4]	brain dopamine [1, 4]	plasma 3-O-methyl-L-DOPA [2, 4]	plasma L-DOPA [2, 4]
Cc1c(Cl)c(C)[n+]([O-])c(Cl)c1-c1noc(-c2cc(O)c(O)c([N+](=O)[O-])c2)n1 [Compound A, 5-[3-(2,5-dichloro-4,6-dimethyl-1-oxy-pyridin-3-yl)-[1,2,4]oxadiazol-5-yl]-3-nitrobenzene-1,2-diol]	marked decrease	significant increases	significant increases	significant increases	≤ 60	90 % of control levels	60 % of controls levels	marked decrease	significant increases							
Cc1ccc(C(=O)c2cc(O)c(O)c([N+](=O)[O-])c2)cc1 [tolcapone, 3,4-dihydroxy-4′-methyl-5-nitrobenzophenone]					≤ 30	minimal inhibitory effects	almost devoid of COMT inhibitory properties			Significant changes	not affected	not affected	not affected	not affected	not affected	not affected
